Experimental data reported in US10654890B2, “Cyclic peptide derivative, method for preparing same and composition thereof” (priority 2014, dated 2020).

System: culture astrocyte
Assay: Astrocyte proliferative activity test (BrdU cell proliferation ELISA)
Format: cell-based, mouse
Procedure: A pregnant ICR female mouse was purchased from Japan SLC, Inc., and a neonatal mouse 24 to 48 after birth was used for the test.
A neonatal ICR mouse (24 to 48 after birth) was sufficiently sterilized with 70% ethanol, immersed in 30 ml of PBS (−) in a 100 mm dish (diameter of 100 mm, Orange Scientific) for cell culture, and then placed in a clean bench. The neonatal mouse was subjected to cervical dislocation using tweezers and euthanized. Head of the neonatal mouse was open and the entire brain was removed. The obtained brain was transferred to a 100 mm dish for cell culture in which 15 ml of high glucose Dulbecco's modified Eagle medium (HG-D-MEM, Wako Pure Chemical Industries, Ltd.) is added. By using tweezers, the olfactory bulb, median eminence, and meninges were removed in the medium to obtain only a cerebrum having hippocampus. Subsequently, the obtained cerebrum was transferred to a 100 mm dish for cell culture added with 10 ml of HG-D-MEM, and using a scalpel, the cerebrum was finely cut to be 1 mm^2 or less. The cerebrum after cutting was transferred, together with the medium, to a 50 ml conical tube (TPP), and after allowing it to stand for 2 minutes, the supernatant was removed. Subsequently, the cerebrum after cutting was added with 4 ml of fresh HG-D-MEM, and after further adding 400 μl of 2.5% trypsin (SIGMA) and 40 μl of 1% DNase I (SIGMA), the cerebrum was incubated in a water bath at 37° C. for 10 minutes under intermittent stirring. Subsequently, to the cerebrum after cutting, 10 ml of HG-D-MEM (10% FBS) was added to terminate the reaction of trypsin followed by centrifuge for 3 minutes at 1,000×g using a centrifuge (H-9R, KOKUSAN Co., Ltd.). The supernatant was collected by an electric pipette, 10 ml of HG-D-MEM (10% FBS) was added to a precipitated cell mass, and pipetting using a sterile pipette was carried out several times until the cell mass is not observed. To remove the remaining cell mass from this cell dispersion, the cell dispersion was passed through a cell strainer (pore diameter of 100 μm, BD Falcon™), and the number of cells in the cell dispersion which has passed through the cell strainer was counted by using a cell counting plate. An adjustment was made with HG-D-MEM (10% FBS) such that the number of cells is 6.0×10^5 cells/ml. After the adjustment of the number of cells, the cell dispersion was seeded, in an amount of 7 ml for each, to a Poly-D-Lysine Cellware 100 mm Dish (PDL 100 mm dish, BD Falcon™). 96 Hours after the seeding, the medium was removed once using an aspirator, and after briefly washing the inside of a 100 mm PDL dish with 10 ml of PBS (−), the medium exchange was carried out by newly adding 7 ml of HG-D-MEM. The above method and the astrocyte preparation described below were carried out based on the method of McCarthy and de Vellis (1980, Non Patent Literature 30).
72 Hours after the medium exchange, the 100 mm PDL dish seeded with the cell broth was removed from the incubator, and tightly covered using a parafilm and fixed by overlaying 3 to 4 dishes. The resultant was cultured by shaking using a bioshaker (MULTI SHAKER MMS, INCUBATOR FMS/EYELA) under a condition including 37° C., 100 rpm, and 20 hours, and the neuronal cells, cell debris, dead cells or the like were liberated. At that time, in the inside the 100 mm PDL dish, only the astrocyte as a glial cell in central nervous system other than neuron was adhered (hereinbelow, described as culture astrocyte). After the shaking, the 100 mm PDL dish was transferred to a clean bench, the supernatant was removed by an aspirator and washed with 10 ml of PBS (−), and after adding 1 ml of 2.5% trypsin (SIGMA) using a Pasteur pipette, the dish was left to stand in an incubator for 10 minutes. The 100 mm PDL dish was again brought back to the clean bench, and added with 10 ml of Dulbecco's modified Eagle medium (D-MEM, Wako Pure Chemical Industries, Ltd.) (10% FBS). […]

| SMILES | astrocyte proliferative activity (25 μM, FIG. 8 and FIG. 9) | astrocyte proliferation (100 μM, FIG. 7) |
| --- | --- | --- |
| CNC(=O)Oc1ccc2c(c1)[C@]1(C)CCN(C)[C@@H]1N2C [eserin, reference compound] | no significant astrocyte proliferative activity was observed |  |
| NS(=O)(=O)Cc1noc2ccccc12 [zonisamide, reference compound] |  | hardly observed |
